Measured values published in paper PMC12184311 (2025).

What was measured:
[1] = system: mm3WJ (mismatched 3WJ) (DNA, junction) CGGAACGGCACTCG/CGAGTGCAGCGTGG/CCACGCACGTTCCG; test: PAGE
[2] = system: one-base-bulged 3WJ (DNA, junction) CGGAACGAGCACTCG/CGAGTGCAGCGTGG/CCACGCTCGTTCCG; test: PAGE
[3] = system: two-base-bulged 3WJ (DNA, junction) CGGAACGAAGCACTCG/CGAGTGCAGCGTGG/CCACGCTCGTTCCG; test: PAGE
[4] = system: 4WJ-22 (DNA, junction) GCCTAGCATGATACTGCTACCG/CGGTAGCAGTACCGTTGGTGGC/GCCACCAACGGCGTCAACTGCC/GGCAGTTGACGTCATGCTAGGC; test: PAGE gel shift; conditions: Mg2+ 10 mM (MgCl2); band widens, no distinct shift
[5] = system: 4WJ-22 (DNA, junction) GCCTAGCATGATACTGCTACCG/CGGTAGCAGTACCGTTGGTGGC/GCCACCAACGGCGTCAACTGCC/GGCAGTTGACGTCATGCTAGGC; test: UV melting, 260 nm; conditions: Na+ (10 mM Na cacodylate, 50 mM NaOAc); 1 equivalent Pt-BIMA, 0.05% DMSO; biphasic
[6] = system: DS-21 (dsDNA) (DNA, duplex) CCTTCACGCGAACGTAATCCT/AGGATTACGTTCGCGTGAAGG; test: UV melting, 260 nm; conditions: Na+ (10 mM Na cacodylate, 50 mM NaOAc); 1 equivalent Pt-BIMA
[7] = system: 3WJ (DNA, junction) CGGAACGGCACTCG/CGAGTGCAGCGTGG/CCACGCTCGTTCCG; test: UV melting, 260 nm; conditions: Na+ (10 mM Na cacodylate, 50 mM NaOAc); 1 equivalent Pt-BIMA
[8] = system: Y fork (DNA, junction) CGCACGTACGGAACGGCACTCGCTTGCTCG/CGAGCAAGCGAGTGCAGCGTGGATACATGC; test: UV melting, 260 nm; conditions: Na+ (10 mM Na cacodylate, 50 mM NaOAc); 1 equivalent Pt-BIMA
[9] = system: 4WJ-FAM1 (DNA, junction) GCCTAGCATGATACTGCTACCG/CGGTAGCAGTACCGTTGGTGGC/GCCACCAACGGCGTCAACTGCC/GGCAGTTGACGTCATGCTAGGC; test: FRET, FAM emission; conditions: Na+ 50 mM (NaOAc); 10 mM HEPES; 5 µM DNA, 1 equivalent Pt-BIMA; FAM emission up about 3.5-fold
[10] = system: FAM-labelled 4WJ-22 (FAM-4WJ) (DNA, junction) GCCTAGCATGATACTGCTACCG/CGGTAGCAGTACCGTTGGTGGC/GCCACCAACGGCGTCAACTGCC/GGCAGTTGACGTCATGCTAGGC; test: microscale thermophoresis; conditions: Na+ 50 mM (NaOAc); 10 mM HEPES, 0.1% Tween, room temperature; 20 nM DNA
[11] = system: FAM-labelled 3WJ-18 (DNA, junction) GTGGCGAGAGCGACGATC/GATCGTCGCAGAGTTGAC/GTCAACTCTTCTCGCCAC; test: microscale thermophoresis; conditions: Na+ 50 mM (NaOAc); 10 mM HEPES, 0.1% Tween, room temperature; error exceeds value
[12] = system: FAM-labelled DS-21 (dsDNA) (DNA, duplex) CCTTCACGCGAACGTAATCCT/AGGATTACGTTCGCGTGAAGG; test: microscale thermophoresis; conditions: Na+ 50 mM (NaOAc); 10 mM HEPES, 0.1% Tween, room temperature; tested 1.5 nM to 50 µM Pt-BIMA
[13] = system: 4WJ-22 (DNA, junction) GCCTAGCATGATACTGCTACCG/CGGTAGCAGTACCGTTGGTGGC/GCCACCAACGGCGTCAACTGCC/GGCAGTTGACGTCATGCTAGGC; test: MST competition, unlabelled DNA titrated; conditions: Na+ 50 mM (NaOAc); IC50 of competitor DNA, not of compound; 20 nM FAM-4WJ-22, 80 nM Pt-BIMA; 10 mM HEPES, 0.1% Tween-20
[14] = system: DS-21 (dsDNA) (DNA, duplex) CCTTCACGCGAACGTAATCCT/AGGATTACGTTCGCGTGAAGG; test: MST competition, unlabelled DNA titrated; conditions: Na+ 50 mM (NaOAc); IC50 of competitor DNA, not of compound; 20 nM FAM-4WJ-22, 80 nM Pt-BIMA; 10 mM HEPES, 0.1% Tween-20

SMILES	binding [1]	binding [2]	binding [3]	binding [4]	ΔTm [5] [°C]	ΔTm [6] [°C]	ΔTm [7] [°C]	ΔTm [8] [°C]	binding [9]	Kd [10]	Kd [11]	binding [12]	IC50 [13]	IC50 [14] [µM]
[Pd+2].[Pd+2].c1ccc2c(c1)ncn2Cc1c2ccccc2c(Cn2cnc3ccccc32)c2ccccc12.c1ccc2c(c1)ncn2Cc1c2ccccc2c(Cn2cnc3ccccc32)c2ccccc12.c1ccc2c(c1)ncn2Cc1c2ccccc2c(Cn2cnc3ccccc32)c2ccccc12.c1ccc2c(c1)ncn2Cc1c2ccccc2c(Cn2cnc3ccccc32)c2ccccc12	yes	yes	yes	–	–	–	–	–	–	–	–	–	–	–
[Pt+2].[Pt+2].c1ccc2c(c1)ncn2Cc1c2ccccc2c(Cn2cnc3ccccc32)c2ccccc12.c1ccc2c(c1)ncn2Cc1c2ccccc2c(Cn2cnc3ccccc32)c2ccccc12.c1ccc2c(c1)ncn2Cc1c2ccccc2c(Cn2cnc3ccccc32)c2ccccc12.c1ccc2c(c1)ncn2Cc1c2ccccc2c(Cn2cnc3ccccc32)c2ccccc12	yes	yes	yes	weak	11.6 ± 0.6	0.7 ± 0.9	21.1 ± 0.1	5.4 ± 1.1	yes	8.27 ± 1.11 x 10^-8 M	1.90 ± 2.27 × 10^-6 M	no	2.88 ± 0.42 x 10^-8 M	> 25
